Laboratory results published in patent US7091222B2, “Imidazole derivatives” (Hoffmann-La Roche Inc., priority 2003, dated 2006).

These compounds were tested against T1, human mGlu 5a receptor (Homo sapiens, UniProt P41594) (assay: [3H]MPEP competition binding on membranes of EBNA cells transfected with human mGlu 5a receptor). Details: competition with [3H]MPEP (2 nM), 1 h at 4° C., membranes of transiently transfected EBNA cells; Ki=IC50/[1+L/Kd].
T1 construct: expressed in transfected cells; host or cells: EBNA cells (transient transfection); membrane homogenates
T1 sequence (P41594 21-1180 isoform P41594-2 limits assumed): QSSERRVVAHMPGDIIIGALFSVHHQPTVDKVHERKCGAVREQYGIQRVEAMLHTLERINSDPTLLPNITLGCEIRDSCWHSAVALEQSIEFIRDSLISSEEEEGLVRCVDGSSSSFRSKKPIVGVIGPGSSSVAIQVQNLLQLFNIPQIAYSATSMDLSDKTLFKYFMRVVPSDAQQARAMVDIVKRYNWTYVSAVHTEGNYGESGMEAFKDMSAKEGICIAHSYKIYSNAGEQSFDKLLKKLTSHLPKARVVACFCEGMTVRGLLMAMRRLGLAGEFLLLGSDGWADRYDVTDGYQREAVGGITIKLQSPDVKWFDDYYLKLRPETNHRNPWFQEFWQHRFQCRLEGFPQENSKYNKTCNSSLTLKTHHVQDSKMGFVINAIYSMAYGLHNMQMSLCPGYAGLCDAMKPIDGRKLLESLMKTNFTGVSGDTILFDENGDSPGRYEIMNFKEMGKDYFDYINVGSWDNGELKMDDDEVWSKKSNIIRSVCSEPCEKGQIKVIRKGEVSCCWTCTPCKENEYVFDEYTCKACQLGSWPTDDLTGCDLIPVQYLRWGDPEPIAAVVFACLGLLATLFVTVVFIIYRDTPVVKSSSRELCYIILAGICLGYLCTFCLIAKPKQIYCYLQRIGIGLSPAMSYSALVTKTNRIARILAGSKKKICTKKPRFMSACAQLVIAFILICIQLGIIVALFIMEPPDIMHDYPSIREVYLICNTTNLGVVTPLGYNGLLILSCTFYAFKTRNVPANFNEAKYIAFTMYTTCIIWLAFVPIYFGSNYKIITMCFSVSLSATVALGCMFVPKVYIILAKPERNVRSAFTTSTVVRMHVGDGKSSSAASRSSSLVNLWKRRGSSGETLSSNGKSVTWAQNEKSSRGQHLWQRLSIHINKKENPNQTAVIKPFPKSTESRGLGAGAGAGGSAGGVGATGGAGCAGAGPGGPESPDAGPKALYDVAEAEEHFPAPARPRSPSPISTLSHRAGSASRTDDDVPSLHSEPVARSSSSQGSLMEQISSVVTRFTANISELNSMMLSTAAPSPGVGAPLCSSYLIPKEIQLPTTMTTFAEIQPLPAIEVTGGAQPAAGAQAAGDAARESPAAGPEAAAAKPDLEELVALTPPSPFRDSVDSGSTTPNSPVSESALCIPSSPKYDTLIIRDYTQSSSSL
Protocol: For binding experiments, cDNA encoding human mGlu 5a receptor was transiently transfected into EBNA cells using a procedure described by Schlaeger and Christensen [Cytotechnology 15:1–13 (1998)]. Cell membrane homogenates were stored at −80° C. until the day of assay where upon they were thawed and resuspended and polytronised in 15 mM Tris-HCl, 120 mM NaCl, 100 mM KCl, 25 mM CaCl2, 25 mM MgCl2 binding buffer at pH 7.4 to a final assay concentration of 20 μg protein/well.
Saturation isotherms were determined by addition of twelve [^3H]MPEP concentrations (0.04–100 nM) to these membranes (in a total volume of 200 μl) for 1 h at 4° C. Competition experiments were performed with a fixed concentration of [^3H]MPEP (2 nM) and IC50 values of test compounds evaluated using 11 concentrations (0.3–10,000 nM). Incubations were performed for 1 h at 4° C.
At the end of the incubation, membranes were filtered onto unifilter (96-well white microplate with bonded GF/C filter preincubated 1 h in 0.1% PEI in wash buffer, Packard BioScience, Meriden, Conn.) with a Filtermate 96 harvester (Packard BioScience) and washed 3 times with cold 50 mM Tris-HCl, pH 7.4 buffer. Nonspecific binding was measured in the presence of 10 μM MPEP. The radioactivity on the filter was counted (3 min) on a Packard Top-count microplate scintillation counter with quenching correction after addition of 45 μl of microscint 40 (Canberra Packard S. A., Zürich, Switzerland) and shaking for 20 min.
The inhibition (antagonists) curves were fitted with a four parameter logistic equation giving IC50, and Hill coefficient using an iterative non linear curve fitting software (Xcel fit).
For binding experiments the Ki values of the compounds tested are given. the Ki value is defined by the following formula: Ki=IC50/[1+L /Kd] in which the IC50 values are those concentrations of the compounds tested which cause 50% inhibition of the competing radioligand ([^3H]MPEP). L is the concentraion of radioligand used in the binding experiment and the Kd value of the radioligand is empirically determined for each batch of membranes prepared.

Row | SMILES | Ki [nM]
1 | Cc1nc(C#Cc2ccnc(Cl)c2)cn1CC(C)C [Example 8, 2-Chloro-4-(1-isobutyl-2-methyl-1H-imidazol-4-ylethynyl)-pyridine] | 191
2 | Cc1cc(C#Cc2cn(CC(F)(F)F)c(C)n2)ccn1 [Example 21, 2-Methyl-4-[2-methyl-1-(2,2,2-trifluoro-ethyl)-1H-imidazol-4-ylethynyl]-pyridine] | 54
3 | Cc1nc(C#Cc2ccnc(Cl)c2)cn1CC(F)(F)F [Example 22, 2-Chloro-4-[2-methyl-1-(2,2,2-trifluoro-ethyl)-1H-imidazol-4-ylethynyl]-pyridine] | 95
4 | COCCn1cc(C#Cc2ccnc(C)c2)nc1C [Example 7, 4-[1-(2-Methoxy-ethyl)-2-methyl-1H-imidazol-4-ylethynyl]-2-methyl-pyridine] | 122

Results, then the compound that gave them:

Row | Ki [nM] | SMILES
5 | 68 | Cc1cc(C#Cc2cn(C(C)C)c(C)n2)ccn1 [Example 2, 4-(1-Isopropyl-2-methyl-1H-imidazol-4-ylethynyl)-2-methyl-pyridine]
6 | 28 | Cc1cc(C#Cc2cn(C)c(C3CC3)n2)ccn1 [Example 13, 4-(2-Cyclopropyl-1-methyl-1H-imidazol-4-ylethynyl)-2-methyl-pyridine]
7 | 33 | Cc1cc(C#Cc2cn(CC#N)c(C)n2)ccn1 [Example 6, [2-Methyl-4-(2-methyl-pyridin-4-ylethynyl)-imidazol-1-yl]-acetonitrile]
8 | 49 | Cc1nc(C#Cc2ccnc(Cl)c2)cn1C [Example 12, 2-Chloro-4-(1,2-dimethyl-1H-imidazol-4-ylethynyl)-pyridine]
9 | 38 | Cc1cc(C#Cc2cn(CC3CC3)c(C)n2)ccn1 [Example 4, 4-(1-Cyclopropylmethyl-2-methyl-1H-imidazol-4-ylethynyl)-2-methyl-pyridine]
